Results as given in patent publication US9169241B2, “Quinolinyloxyphenylsulfonamides” (Max-Planck-Gesellschaft Zur Forderung der Wissenschaften …, priority 2009, dated 2015).

Legend:
Assay type in all cases: cell-based
[1] = tested on: SF126; assay: Apoptosis assay (Cellomics, nucleus condensation); details: Homo sapiens, SF-126, Table III, read-out: Apoptosis induction in SF126
How it was run: (§1)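 Readout: per-nucleus Hoechst 33342 fluorescence intensity and its population variation, plus number of detected cells, by automated CCD imaging. Live cells, 5000/well; compound 0.39–12.5 μM (twofold series) vs DMSO, read at 24 h and 48 h.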

[2] = tested on: U118; assay: Apoptosis assay (Cellomics, nucleus condensation); details: Table III, read-out: Apoptosis induction in U118
How it was run: as §1

[3] = tested on: U138; assay: Apoptosis assay (Cellomics, nucleus condensation); details: Table III, read-out: Apoptosis induction in U138
How it was run: as §1

[4] = tested on: C8161; assay: Apoptosis assay (Cellomics, nucleus condensation); details: Homo sapiens, Table III, read-out: Apoptosis induction in C8161
How it was run: as §1

[5] = tested on: Hs578T; assay: Apoptosis assay (Cellomics, nucleus condensation); details: Homo sapiens, Hs-578T, Table III, read-out: Apoptosis induction in Hs578T
How it was run: as §1

[6] = tested on: SF763; assay: Apoptosis assay (Cellomics, nucleus condensation); details: Table III, read-out: Apoptosis induction in SF763
How it was run: as §1

[7] = target: T1, wild type AXL (wtAXL) receptor tyrosine kinase (Homo sapiens, UniProt P30530); assay: NIH-3T3-AXL cellular kinase assay (pY-AXL-ELISA); details: NIH-3T3-AXL (clone 22) cells, serum depleted, compounds 1 h; Table Ia
T1 construct: WtAXL cDNA was cloned into vector pLXSN(ESK) and transfected into Phoenix E packaging cells; expressed in transfected cells; host or cells: NIH3T3 N7 (mouse fibroblasts), retrovirally infected, clone 22
T1 sequence (P30530 26-894): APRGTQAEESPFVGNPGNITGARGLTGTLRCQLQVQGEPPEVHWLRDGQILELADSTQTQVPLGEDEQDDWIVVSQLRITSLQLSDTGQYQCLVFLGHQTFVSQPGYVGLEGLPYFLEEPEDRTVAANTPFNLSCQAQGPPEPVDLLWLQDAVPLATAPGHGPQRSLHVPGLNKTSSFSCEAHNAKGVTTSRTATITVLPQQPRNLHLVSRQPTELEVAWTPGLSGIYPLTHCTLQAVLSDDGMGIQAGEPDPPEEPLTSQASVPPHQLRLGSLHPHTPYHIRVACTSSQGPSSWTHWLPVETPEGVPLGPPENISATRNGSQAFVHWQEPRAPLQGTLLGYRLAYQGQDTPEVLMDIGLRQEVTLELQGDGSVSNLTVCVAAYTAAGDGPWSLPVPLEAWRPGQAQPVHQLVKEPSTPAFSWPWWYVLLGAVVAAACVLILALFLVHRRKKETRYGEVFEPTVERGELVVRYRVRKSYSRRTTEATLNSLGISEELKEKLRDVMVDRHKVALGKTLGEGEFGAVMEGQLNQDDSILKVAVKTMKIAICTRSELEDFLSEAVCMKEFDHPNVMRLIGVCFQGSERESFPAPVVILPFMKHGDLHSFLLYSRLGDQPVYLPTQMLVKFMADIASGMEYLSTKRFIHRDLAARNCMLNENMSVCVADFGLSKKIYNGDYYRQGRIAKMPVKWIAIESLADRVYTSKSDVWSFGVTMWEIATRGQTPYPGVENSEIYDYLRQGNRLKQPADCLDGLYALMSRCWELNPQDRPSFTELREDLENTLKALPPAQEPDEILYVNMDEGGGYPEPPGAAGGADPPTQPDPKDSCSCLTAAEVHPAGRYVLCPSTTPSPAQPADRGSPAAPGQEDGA
How it was run: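 Phospho-AXL was quantified by ELISA in lysates (4G10-biotin, streptavidin-AP, AttoPhos, 430/560 nm read at 90 min). The cells were monoclonal NIH3T3 lines stably transduced with human wtAXL, exposed to serial compound dilutions for 1 h before lysis.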

Row | Compound | IC50 [1] | IC50 [2] | IC50 [3] | IC50 [4] | IC50 [5] | IC50 [6] | IC50 [7]
1 | COc1cc2c(Oc3ccc(NS(=O)(=O)c4c(F)cccc4F)cc3F)ccnc2cc1OCCCN1CCOCC1 [Example 77, 2,6-Difluoro-N-{3-fluoro-4-[6-methoxy-7-(3-morpholin-4-yl-propoxy)-quinolin-4-yloxy]-phenyl}-benzenesulfonamide] | ≤ 12.5 µM | ≤ 12.5 µM | ≤ 12.5 µM | ≤ 12.5 µM | ≤ 12.5 µM | ≤ 12.5 µM | < 0.5 µM
2 | COc1cc2c(Oc3ccc(NS(=O)(=O)c4cc(Cl)cc(Cl)c4OC)cc3F)ccnc2cc1OCCCN1CCCCC1 [Example 34, 3,5-Dichloro-N-{3-fluoro-4-[6-methoxy-7-(3-piperidin-1-yl-propoxy)-quinolin-4-yloxy]-phenyl}-2-methoxy-benzenesulfonamide] | ≤ 12.5 µM | ≤ 12.5 µM | ≤ 12.5 µM | ≤ 12.5 µM | 12.5 to 50 µM | ≤ 12.5 µM | < 0.5 µM
3 | COc1cc2c(Oc3ccc(NS(=O)(=O)c4cccc5ccccc45)cc3F)ccnc2cc1OCCCN1CCCC(C)C1 (centres unmarked) [Example 58, Naphthalene-1-sulfonic acid (3-fluoro-4-{6-methoxy-7-[3-(3-methyl-piperidin-1-yl)-propoxy]-quinolin-4-yloxy}-phenyl)-amide] | ≤ 12.5 µM | 12.5 to 50 µM | ≤ 12.5 µM | ≤ 12.5 µM | 12.5 to 50 µM | ≤ 12.5 µM | < 0.5 µM
4 | COc1cc2c(Oc3ccc(NS(=O)(=O)c4cccc(-c5ccccc5)c4)cc3F)ccnc2cc1OCCCN1CCCCC1 [Example 8, Biphenyl-3-sulfonic acid {3-fluoro-4-[6-methoxy-7-(3-piperidin-1-yl-propoxy)-quinolin-4-loxy]-phenyl}-amide] | ≤ 12.5 µM | ≤ 12.5 µM | 12.5 to 50 µM | ≤ 12.5 µM | ≤ 12.5 µM | ≤ 12.5 µM | < 0.5 µM
5 | COc1cc2c(Oc3ccc(NS(=O)(=O)c4ccc(Cl)s4)cc3F)ccnc2cc1OCCCN1CCCC(C)C1 (centres unmarked) [Example 63, 5-Chloro-thiophene-2-sulfonic acid (3-fluoro-4-{6-methoxy-7-[3-(3-methyl-piperidin-1-yl)-propoxy]-quinolin-4-yloxy}-phenyl)-amide] | ≤ 12.5 µM | ≤ 12.5 µM | ≤ 12.5 µM | ≤ 12.5 µM | ≤ 12.5 µM | ≤ 12.5 µM | < 0.5 µM
6 | COc1cc2c(Oc3ccc(NS(=O)(=O)c4ccccc4F)cc3F)ccnc2cc1OCCN1CCOCC1 [Example 81, 2-Fluoro-N-{3-fluoro-4-[6-methoxy-7-(2-morpholin-4-yl-ethoxy)-quinolin-4-yloxy]-phenyl}-benzenesulfonamide] | ≤ 12.5 µM | ≤ 12.5 µM | ≤ 12.5 µM | ≤ 12.5 µM | ≤ 12.5 µM | ≤ 12.5 µM | < 0.5 µM
7 | COc1cc2c(Oc3ccc(NS(=O)(=O)c4cc(Cl)cc(Cl)c4OC)cc3F)ccnc2cc1OCCCN1CCN(C)CC1 [Example 35, 3,5-Dichloro-N-(3-fluoro-4-{6-methoxy-7-[3-(4-methyl-piperazin-1-yl)-propoxy]-quinolin-4-yloxy}-phenyl)-2-methoxy-benzenesulfonamide] | ≤ 12.5 µM | ≤ 12.5 µM | 12.5 to 50 µM | ≤ 12.5 µM | ≤ 12.5 µM | ≤ 12.5 µM | < 0.5 µM
8 | COc1cc2c(Oc3ccc(NS(=O)(=O)c4ccccc4Cl)cc3F)ccnc2cc1OCCCN1CCCC(C)C1 (centres unmarked) [Example 38, 2-Chloro-N-(3-fluoro-4-{6-methoxy-7-[3-(3-methyl-piperidin-1-yl)-propoxy]-quinolin-4-yloxy}-phenyl)-benzenesulfonamide] | ≤ 12.5 µM | ≤ 12.5 µM | ≤ 12.5 µM | ≤ 12.5 µM | ≤ 12.5 µM | ≤ 12.5 µM | < 0.5 µM
9 | COc1cc2c(Oc3ccc(NS(=O)(=O)c4cc(C)ccc4F)cc3F)ccnc2cc1OCCCN1CCCC(C)C1 (centres unmarked) [Example 55] | ≤ 12.5 µM | 12.5 to 50 µM | ≤ 12.5 µM | ≤ 12.5 µM | ≤ 12.5 µM | ≤ 12.5 µM | < 0.5 µM
10 | COc1cc2c(Oc3ccc(NS(=O)(=O)c4ccccc4C(F)(F)F)cc3Cl)ccnc2cc1OCCCN1CCN(C)CC1 [Example 87, N-(3-Chloro-4-{6-methoxy-7-[3-(4-methyl-piperazin-1-yl)-propoxy]-quinolin-4-yloxy}-phenyl)-2-trifluoromethyl-benzenesulfonamide] | ≤ 12.5 µM | ≤ 12.5 µM | 12.5 to 50 µM | ≤ 12.5 µM | ≤ 12.5 µM | ≤ 12.5 µM | < 0.5 µM
11 | COc1cc2c(Oc3ccc(NS(=O)(=O)c4ccc(F)cc4F)cc3F)ccnc2cc1OCCCN1CCCC(C)C1 (centres unmarked) [Example 47, 2,4-Difluoro-N-(3-fluoro-4-{6-methoxy-7-[3-(3-methyl-piperidin-1-yl)-propoxy]-quinolin-4-yloxy}-phenyl)-benzenesulfonamide] | 12.5 to 50 µM | ≤ 12.5 µM | ≤ 12.5 µM | 12.5 to 50 µM | ≤ 12.5 µM | ≤ 12.5 µM | < 0.5 µM
12 | COc1cc2c(Oc3ccc(NS(=O)(=O)c4c(F)cccc4F)cc3F)ccnc2cc1OCCN1CCOCC1 [Example 82, 2,6-Difluoro-N-{3-fluoro-4-[6-methoxy-7-(2-morpholin-4-yl-ethoxy)-quinolin-4-yloxy]-phenyl}-benzenesulfonamide] | ≤ 12.5 µM | ≤ 12.5 µM | ≤ 12.5 µM | ≤ 12.5 µM | ≤ 12.5 µM | ≤ 12.5 µM | < 0.5 µM
13 | COc1cc2c(Oc3ccc(NS(=O)(=O)c4cccc(Oc5ccccc5)c4)cc3F)ccnc2cc1OCCCN1CCCCC1 [Example 10, N-{3-Fluoro-4-[6-methoxy-7-(3-piperidin-1-yl-propoxy)-quinolin-4-yloxy]-phenyl}-3-phenoxy-benzenesulfonamide] | 12.5 to 50 µM | ≤ 12.5 µM | ≤ 12.5 µM | ≤ 12.5 µM | ≤ 12.5 µM | 12.5 to 50 µM | < 0.5 µM
14 | COc1cc2c(Oc3ccc(NS(=O)(=O)c4c(Cl)cccc4Cl)cc3F)ccnc2cc1OCCCN1CCN(C)CC1 [Example 32, 2,6-Dichloro-N-(3-fluoro-4-{6-methoxy-7-[3-(4-methyl-piperazin-1-yl)-propoxy]-quinolin-4-yloxy}-phenyl)-benzenesulfonamide] | ≤ 12.5 µM | ≤ 12.5 µM | ≤ 12.5 µM | ≤ 12.5 µM | ≤ 12.5 µM | ≤ 12.5 µM | 
15 | COc1cc2c(Oc3ccc(NS(=O)(=O)c4cccc(Oc5ccccc5)c4)cc3F)ccnc2cc1OCCCN1CCCC(C)C1 (centres unmarked) [Example 59, N-(3-Fluoro-4-{6-methoxy-7-[3-(3-methyl-piperidin-1-yl)-propoxy]-quinolin-4-yloxy}-phenyl)-3-phenoxy-benzenesulfonamide] | ≤ 12.5 µM | ≤ 12.5 µM | ≤ 12.5 µM | ≤ 12.5 µM | ≤ 12.5 µM | ≤ 12.5 µM | < 0.5 µM
16 | COc1cc2c(Oc3c(Cl)cc(NS(=O)(=O)c4c(F)cccc4F)cc3Cl)ccnc2cc1OCCCN1CCN(C)CC1 [Example 88, N-(3,5-Dichloro-4-{6-methoxy-7-[3-(4-methyl-piperazin-1-yl)-propoxy]-quinolin-4-yloxy}-phenyl)-2,6-difluoro-benzenesulfonamide] | ≤ 12.5 µM | ≤ 12.5 µM | ≤ 12.5 µM | ≤ 12.5 µM | ≤ 12.5 µM | ≤ 12.5 µM | 
